Assay results published in PubChem BioAssay AID328 (DTP/NCI, 2004).
Toxic doses and inconclusive results are not listed. How the source made its calls: active means survival T/C of 150% or more; inactive means T/C below 125% in these data.

Test system: BDF1 mice, P388 leukemia ip, median survival T/C
Test: NCI In Vivo Anticancer Drug Screen. Data for tumor model P388 Leukemia (intraperitoneal) in B6D2F1 (BDF1) mice
Settings: endpoint: median survival time, higher = longer survival
In short: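 In tumour-bearing mice, survival after compound treatment is set against the vehicle group and given as a quotient.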

[1] = dose: 50.0 mg/kg/injection, schedule: Q01DX009 (ip), vehicle: saline with Tween-80
[2] = dose: 100.0 mg/kg/injection, schedule: Q01DX009 (ip), vehicle: saline with Tween-80
[3] = dose: 200.0 mg/kg/injection, schedule: Q01DX009 (ip), vehicle: saline with Tween-80
[4] = dose: 25.0 mg/kg/injection, schedule: Q01DX009 (ip), vehicle: saline with Tween-80
[5] = dose: 100.0 mg/kg/injection, schedule: Q04DX003 (ip), vehicle: saline
[6] = dose: 200.0 mg/kg/injection, schedule: Q04DX003 (ip), vehicle: saline
[7] = dose: 50.0 mg/kg/injection, schedule: Q01DX009 (ip), vehicle: saline
[8] = dose: 100.0 mg/kg/injection, schedule: Q01DX009 (ip), vehicle: saline
[9] = dose: 100.0 mg/kg/injection, schedule: Q04DX003 (ip), vehicle: saline with Tween-80
[10] = dose: 200.0 mg/kg/injection, schedule: Q04DX003 (ip), vehicle: saline with Tween-80
[11] = dose: 400.0 mg/kg/injection, schedule: Q04DX003 (ip), vehicle: saline with Tween-80

Measured: T/C

SC1(SC2(S)CCCCC2)CCCCC1
inactive: [1] 100 % of control | [2] 100 % of control | [3] 100 % of control

COc1ccc(CC(=O)N2CCc3cc(OC)c(OC)cc3C2O)cc1OC (centres undefined)
inactive: dose: 12.5 mg/kg/injection, schedule: Q01DX009 (ip), vehicle: saline with Tween-80 101 % of control | [4] 89 % of control | [1] 94 % of control | [2] 114 % of control

C#CCn1cnc2c(Cl)ncnc21
inactive: dose: 50.0 mg/kg/injection, schedule: Q01DX009 (ip), vehicle: other 118 % of control | dose: 100.0 mg/kg/injection, schedule: Q01DX009 (ip), vehicle: other 100 % of control | [5] 108 % of control | [6] 104 % of control | dose: 400.0 mg/kg/injection, schedule: Q04DX003 (ip), vehicle: saline 95 % of control

COC(=O)C1(C)CCC(c2ccc(OC)cc2)CC1=O (centres undefined)
inactive: [7] 86 % of control | [8] 100 % of control | [5] 100 % of control | dose: 200.0 mg/kg/injection, schedule: Q01DX009 (ip), vehicle: saline 109 % of control | [6] 103 % of control

c1ccc(N=NC2=NN(c3ccccc3)CCS2)cc1
inactive: [4] 116 % of control | [1] 105 % of control | [2] 122 % of control

CSCSCC(NS(=O)(=O)c1ccc(C)cc1)C(=O)O (centres undefined)
inactive: [9] 104 % of control | [10] 109 % of control | [11] 100 % of control

O=C(O)CSc1cc(-c2ccc(Cl)cc2)s[s+]1
inactive: dose: 1.56 mg/kg/injection, schedule: Q01DX009 (ip), vehicle: water 104 % of control | dose: 2.0 mg/kg/injection, schedule: Q04DX003 (ip), vehicle: water 100 % of control | dose: 3.12 mg/kg/injection, schedule: Q01DX009 (ip), vehicle: water 115 % of control | dose: 4.0 mg/kg/injection, schedule: Q04DX003 (ip), vehicle: water 112 % of control | dose: 6.25 mg/kg/injection, schedule: Q01DX009 (ip), vehicle: water 112 % of control | dose: 6.25 mg/kg/injection, schedule: Q04DX003 (ip), vehicle: water 117 % of control | dose: 8.0 mg/kg/injection, schedule: Q04DX003 (ip), vehicle: water 100 % of control | dose: 12.5 mg/kg/injection, schedule: Q01DX009 (ip), vehicle: water 107 % of control | dose: 12.5 mg/kg/injection, schedule: Q04DX003 (ip), vehicle: water 100 % of control | dose: 16.0 mg/kg/injection, schedule: Q04DX003 (ip), vehicle: water 90 % of control | dose: 25.0 mg/kg/injection, schedule: Q04DX003 (ip), vehicle: water 97 % of control | dose: 50.0 mg/kg/injection, schedule: Q04DX003 (ip), vehicle: water 97 % of control

O=C(O)CNC(=O)C(Br)Cc1ccccc1 (centres undefined)
inactive: [9] 90 % of control | [10] 100 % of control | [11] 100 % of control

OC/C(=N/Nc1ccc2ccccc2n1)c1ccccc1
inactive: [1] 114 % of control | [2] 117 % of control | [9] 94 % of control | [3] 115 % of control | [10] 102 % of control | dose: 400.0 mg/kg/injection, schedule: Q01DX009 (ip), vehicle: saline with Tween-80 88 % of control | [11] 101 % of control

CCOS(C)(=O)=O
inactive: [7] 90 % of control | [8] 100 % of control | [5] 100 % of control | [6] 105 % of control
